Experimental data: patent US7338799B2 (Vanderbilt University, priority 2001, dated 2008)
Where two headings read alike, the source gives them in different places.

Columns and labels:
hCHT [1] = molecular target: T1, hCHT (Homo sapiens, UniProt Q9GZV3); experiment: [3H]HC-3 radioligand binding in membrane fractions of hCHT transfected COS-7 cells; settings: for Ki: 10 nM [3H]HC-3, hCHT transfected COS-7 cell membranes, read-out: Ki in inhibiting [3H]HC-3 binding
T1 construct: The hCHT cDNA encodes a protein of 580 amino acids; expressed in transfected cells; host or cells: COS-7 (transient, FuGene 6, pcDNA3)
T1 sequence (Q9GZV3 1-580): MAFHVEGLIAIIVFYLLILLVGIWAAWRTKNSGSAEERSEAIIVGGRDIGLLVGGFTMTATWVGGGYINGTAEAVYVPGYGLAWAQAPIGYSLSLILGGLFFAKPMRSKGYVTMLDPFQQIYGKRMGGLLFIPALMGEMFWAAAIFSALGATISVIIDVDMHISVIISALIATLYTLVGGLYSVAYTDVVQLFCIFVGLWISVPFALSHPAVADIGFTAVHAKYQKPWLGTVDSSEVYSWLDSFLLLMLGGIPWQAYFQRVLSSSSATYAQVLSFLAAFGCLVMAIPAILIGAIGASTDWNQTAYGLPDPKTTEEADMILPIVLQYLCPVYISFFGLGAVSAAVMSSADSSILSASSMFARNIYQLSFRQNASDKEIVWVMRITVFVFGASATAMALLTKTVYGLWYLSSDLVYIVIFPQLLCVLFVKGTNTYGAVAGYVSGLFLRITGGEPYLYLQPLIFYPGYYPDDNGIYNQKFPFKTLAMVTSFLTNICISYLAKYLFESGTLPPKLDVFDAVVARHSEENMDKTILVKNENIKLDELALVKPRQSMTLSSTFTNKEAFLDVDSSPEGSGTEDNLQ
Procedure: COS-7 cells were transfected with a pcDNA3 vector containing hCHT cDNA using the FuGene 6 transfection reagent (Roche Diagnostics) following the manufacturer's protocols. Briefly, COS-7 cells were cultured in Dulbecco's modified Eagles' medium (DMEM) supplemented with 10% fetal bovine serum (Hyclone), 100 μg/ml of penicillin and streptomycin at a density of 3-4 million cells in 150 mm culture dishes or 5×10^4 cells per well in 24 well dishes (Falcon). After 24 hr, cells were transfected and 48 hr later, the cells were harvested and processed for membrane binding and whole cell or vesicle transport assays.
Monolayers of hCHT transfected COS-7 cells were washed with 30 ml of HTE buffer and harvested in 10 ml of homogenization buffer (0.32 M sucrose in HTE buffer). Cells were homogenized at 20,000 rpm for 25 sec using a Polytron tissue homogenizer (Brinkman). The homogenate was centrifuged at 100,000×g for 45 min at 4° C. The resulting pellet was suspended in 2 ml of HTE buffer, assayed for protein content (Bradford method; BioRad) and 50 μg of the membrane suspension (1 μg/μl) was transferred to each tube in triplicate. Unless otherwise indicated, all binding assays were performed in the presence of 150 mM NaCl in HTE buffer. Assays were initiated by the addition of [^3H]HC-3 (127 Ci per mmol; NEN Life Science Products, 10 nM final concentration). After a 1 hr incubation at room temperature, membranes were rapidly filtered through glass fiber GF/B filters (Brandel) soaked in 0.3% polyethylenimine (Sigma) in HTE buffer and accumulated radioactivity was quantified using liquid scintillation spectrometry (Packard). To test the ion dependence of hCHT binding activity, Na^+ was replaced in the assay buffer with equimolar concentrations of Li^+ whereas Cl^− was replaced with equimolar concentrations of isethionate. Non-specific binding was quantified by measuring [^3H] […] Data for binding and transport assays (see below) were analyzed using nonlinear least squares curve fitting and Scatchard transformations (Kaleidagraph, Abelbeck).

hCHT [2] = molecular target: T1, hCHT; experiment: [3H]choline transport in resealed membrane vesicles from hCHT transfected COS-7 cells; type: biochemical
Procedure: To assay CHT activity in resealed membrane vesicles from hCHT-transfected mammalian cells, the inventors transiently transfected COS-7 cells with hCHT as described herein above and prepared membrane fractions as described for binding assays. After obtaining the membrane fractions, resealed membrane vesicles were prepared as described by Fisher et al., 1992 (Fishe et al., 1992) with slight modifications. The membrane pellets were resuspended in 2 ml of HTE buffer (˜2 μg/μl) and the suspension was rotated gently at 4° C. for 45 min. Membrane vesicle suspensions were centrifuged (27,000×g) for 20 min at 4° C. and the resulting pellet suspended in 2 ml of Na^+ and Cl^− free HTE buffer. Protein content of the suspension was determined (Bradford; BioRad) and 50 μg of the vesicle suspension (1 μg/μl) was transferred to each tube for triplicate assays. […] After a 5 min incubation at room temperature, vesicles were rapidly filtered through Whatman GF/B filters soaked in 0.3% polyethylenimine in HTE buffer and the accumulated radioactivity quantified as described for binding assays. […] In all experiments, non-specific uptake was quantified by determining uptake in the presence of 1 μM HC-3 and subtracted from the total uptake to yield specific transport.

mCHT [3] = molecular target: T2, mCHT (Mus musculus, UniProt Q8BGY9, Q119K/Q86H); experiment: [3H]HC-3 binding in membrane fractions of mCHT transfected COS-7 cells; settings: for Ki: mCHT transfected COS-7 cell membrane, read-out: Ki in inhibiting [3H]HC-3 binding
T2 construct: expressed in transfected cells; host or cells: COS-7 (transient, pcDNA3)
T2 sequence (Q8BGY9 with tags, fused parts or gaps Q86H/Q119K): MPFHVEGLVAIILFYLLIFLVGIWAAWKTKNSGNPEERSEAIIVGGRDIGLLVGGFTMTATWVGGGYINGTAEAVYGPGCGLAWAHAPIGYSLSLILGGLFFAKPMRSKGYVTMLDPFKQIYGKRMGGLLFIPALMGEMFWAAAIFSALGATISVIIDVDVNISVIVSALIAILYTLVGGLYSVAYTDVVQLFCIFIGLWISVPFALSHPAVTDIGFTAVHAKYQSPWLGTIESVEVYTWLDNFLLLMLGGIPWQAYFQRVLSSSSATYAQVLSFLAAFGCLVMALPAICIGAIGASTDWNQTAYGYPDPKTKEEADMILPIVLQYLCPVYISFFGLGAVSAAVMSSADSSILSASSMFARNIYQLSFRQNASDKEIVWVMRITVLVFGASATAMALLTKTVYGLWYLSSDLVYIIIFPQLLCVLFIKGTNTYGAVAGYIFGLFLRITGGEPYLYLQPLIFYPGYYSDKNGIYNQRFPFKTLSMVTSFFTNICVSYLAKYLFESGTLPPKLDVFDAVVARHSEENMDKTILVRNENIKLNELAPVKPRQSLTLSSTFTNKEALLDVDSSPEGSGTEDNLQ

mCHT [4] = molecular target: T2, mCHT; experiment: choline uptake in resealed membrane vesicles from mCHT transfected COS-7 cells; type: biochemical; settings: for IC50: resealed membrane vesicles, mCHT
[5] = substrate: C[N+](C)(C)CCO; experiment: cells, lysate or membranes named

For `CC(=O)OCC[N+](C)(C)C` [ACh, acetylcholine], the Ki (hCHT [1]; ACh in the presence of 10 μM physostigmine) was 433000 nM, the Ki (hCHT [2]) was 570 nM and the Ki (mCHT [3]; ACh in the presence of physostigmine) was 433000 nM.

With `C[N+]1(C)CCOC(O)(c2ccc(-c3ccc(C4(O)C[N+](C)(C)CCO4)cc3)cc2)C1.[Br-].[Br-]` (stereo not drawn) [HC-3, hemicholinium-3] the Ki (hCHT [1]) was 4 nM, the “Hill coefficient of [3H]HC-3 binding” value (hCHT [1]; single site kinetics) was 0.99 and the “effect of addition of HC-3 on [3H]choline uptake” value (hCHT [2]; hCHT vesicles against vector transfected controls, data not shown) was “reduced [^3H]choline uptake to levels seen in vector transfected COS-7 membrane vesicles”. For the same molecule, the Ki (hCHT [2]; read-out: Ki for inhibition of [3H]choline uptake, resealed membrane vesicles, hCHT, 20 nM [3H]choline) was 5 nM, the “effect on choline uptake” value (mCHT [4]; 1 μM HC-3, mCHT vesicles against vector transfected) was “reduced choline uptake to levels seen in vector transfected COS-7 membrane vesicles” and the IC50 (mCHT [4]; read-out: IC50 for inhibition of mCHT-mediated choline uptake) was 5 nM. It also gave a Kd (mCHT [3]; Scatchard transformation, mCHT expressing membranes, read-out: equilibrium dissociation constant (Kd) of [3H]HC-3 binding) of 5 nM and a Ki (mCHT [3]) of 5 nM.

For `C[N+](C)(C)CCO` [choline], the Ki (hCHT [2]) was 123 nM and the IC50 (mCHT [4]) was 123 nM.

B1: mCHT (Mus musculus; Q119K/Q86H) (protein)
chain: T2 sequence (Q8BGY9 with tags, fused parts or gaps Q86H/Q119K)
B1 was tested, and the Km ([5]; other: Eadie-Hofstee plot, single site, mCHT vesicles) was 2 µM.

B2: hCHT (Homo sapiens) (protein)
chain: T1 sequence (Q9GZV3 1-580)
For B2, the Km ([5]; other: resealed membrane vesicles, hCHT) was 1.6 µM.
